Assay [1] concerns the target xanthurenic acid binding site(s). In words: [3H]-XA binding to synaptic membranes in the presence of copper ions. The arrangement: species or system rat. The conditions noted are these: pH 6.5.
Assay [2] concerns rat. The experiment in a line: Object recognition test. The conditions noted are these: in vivo. On the procedure:
Ennaceur and Delacour, Behav. Brain Res. 1988, 31: 47–59.
Doses of 37.5 and 75 mg/kg i.p. were used.

Assay [3] has as its system rat. In words: Social interactions between two congeners. The conditions noted are these: in vivo. An excerpt:
This tendency was confirmed by a test evaluating social interactions between two congeners (Ramos et al., Behav. Brain Res., 1997, 85: 57–69).

In another assay the test system is XA transport system. The experiment in a line: XA transport in differentiated NCB-20 cells. It counts as cell-based. The procedure: The cell culture was prepared by using a culture dish of NCB-20 cells at 80% confluence. The culture medium was removed and replaced with 10 ml of DMEM supplemented with 10% FCS. Cells were then detached and suspended by repeated passage of the medium through a 2 mm gauge needle. Cells were then counted in a hemocytometer. The final suspension was adjusted to a cell density of 3.10^4 cells/ml in DMEM medium supplemented with 10% FCS and 1 mM cAMP. Petri dishes were seeded with 2 ml of this suspension and incubated at 37° C. in a moisture-saturated CO2 atmosphere. Cells were used four days after inoculation.
The culture medium of 4-day NCB-20 cell cultures differentiated in cAMP was replaced by one of the buffer solutions described hereinabove (Krebs with or without Na^+, to respectively evaluate Na^+-dependent active transport and passive transport, which occurs mainly through diffusion) according to the type of experiment planned. Culture dishes were placed in a water bath at 37° C. for 10 minutes. The buffer was then replaced by the same buffer solution containing [^3H]-XA and XA at concentrations ranging from […]. [^3H]-XA was present at very low concentration and served only as a tracer of the cold (non-radiolabelled) XA. After 1 minute of incubation, the solutions were aspirated and the cells washed three times for 10 seconds with 1 ml of the same buffer (Krebs with or without Na^+), kept on ice. Active transport requires energy (ATP) and is markedly slowed at temperatures below 37° C. The washed cell layer was frozen in dishes then, the next day, distilled water was added to obtain a solution of cellular debris containing the intracellular radiolabel ([^3H]-XA). Freezing facilitated homogenization by repeated passage of the solution through a pipette. A 900 μl aliquot was added to scintillation fluid (Rotiszint®, 4 ml). The remainder of the solution was sampled to assay protein by the BCA method (Uptima). The radioactivity measured in the scintillation counter was converted by means of a suitable calibration curve into picomoles of XA taken up by the cells per mg of protein.
For each incubation time, transport was measured on nine dishes of NCB-20 cells with Na^+ and without Na^+. Ten different time points were studied: 0-10-30 seconds and 1, 2, 3, 5, 8, 10, 12 minutes. Four different experiments were carried out.
For each XA concentration, XA transport was measured on nine dishes of NCB-20 cells with Na^+ and nine dishes without Na^+. Seven different concentrations were tested: 1-5-12.5-25-50-100-200 μM. Four independent experiments were carried out.
Four milliliters of scintillator were added to the tubes containing 900 μl of the cell suspension obtained. The control tube contained 900 μl of doubly-distilled water, and the tubes used to measure specific activity contained 10 μl of the radioactive solutions used as reagent during the experiment and 890 μl of doubly-distilled water. The tubes were closed, vortexed and left overnight at 4° C. before being counted in the scintillation counter. This count measures intracellular radioactivity which is directly proportional to the quantity of XA that entered the cell through passive or active transport. To calculate the amount of active transport, passive transport (Krebs without Na^+) is simply subtracted from total transport (Krebs with Na^+).
Other endogenous molecules which might be transported by the XA transporter were tested. […] The results are shown in the histogram in FIG. 34 as the percentage entering the cells relative to transport in the presence of radiolabelled XA alone (=100%).

The test system of assay [4] is extracellular dopamine release in the PFC. In words: Microdialysis of dopamine, DOPAC and HVA in PFC after local XA. The following applies: rat, in vivo. The procedure:
• Animals: Adult male Wistar rats weighing 250 to 275 g were housed in pairs in plastic cages with a standard 7 a.m.–7 p.m. light cycle and free access to food and water. Animals studies were conducted in accordance with the requirements of the EEC directive of 24 Nov. 1986 (86/609/EEC). • Chemicals: XA, 6-OHDA hydrobromide, 2,4,5-trihydroxyphenylethylamine and desipramine were purchased from Sigma. NCS-486 was produced by the Laboratoire de Pharmacochimie of the CNRS in Strasbourg. • Surgical protocol: An L-shaped cannula with 4 mm tip (CMA 12, Carnegie, Sweden) was used for the experiments. The dialysis membrane, 500 μm in diameter, was made of polycarbonate-polyether with a 20 Kda cutoff. The probe guide was implanted in the PFC under stereotactic guidance. Animals were anesthetized with ketamine hydrochloride (150 mg/kg i.p.)
The experiments were carried out in conscious rats with and without induced lesions, 24 to 48 hours after surgical insertion of the microdialysis probe. The composition of the microdialysis medium was as follows: 147 mM NaCl; 1.2 mM CaCl2; 1.2 mM MgCl2; 4.0 mM KCl, pH 6.5. The dialysis rate was 1 μl/min (CMA 100 pump, Carnegie). Dialysates were collected in 20 minute fractions and stored immediately in liquid nitrogen pending analysis.
These compounds were analyzed by HPLC with electrochemical detection. The chromatographic system consisted of a 25 cm×4.6 mm C18 column maintained at a constant temperature of 30° C. The mobile phase was 50 mM NaH2PO4 containing 0.1 mM EDTA and 6% methanol, the pH of the solution was adjusted to 4.85.
Retrodialyzed XA concentrations were respectively 1 μM (black circles), 5 μM (black squares) and 20 μM (black triangles). XA was applied during a 20 minute dialysis. The results are expressed as the percentage of mean baseline dopamine release (determined on eight 20-min dialysis fractions prior to stimulation by XA) (FIG. 20).

Assay [5] relates to rat. The experiment in a line: Rotations in rats with unilateral 6-OHDA lesions. It counts as in vivo. The conditions noted are these: rat, in vivo.

For orientation: IC50 means the point on the concentration scale where inhibition reaches its midpoint. For orientation: Km means the substrate concentration at which the rate is half of its maximum.

“Also recorded” adds a separate entry of the source. Where two headings read alike, the source gives them in different places.

`O=C(O)c1cc(O)c2cccc(O)c2n1` [XA, xanthurenic acid]: the concentration for half-maximal inhibition (IC50) in assay [1] (read-out: IC50, two site binding model, first site) is 1 µM. The IC50 in assay [1] (read-out: IC50, two site binding model, second site) came to 114 µM. Besides, the Kd in assay [1] (read-out: Kd (saturation experiment)) was found to be 7.56 µM. In addition, in the assay with rat [2], the object recognition score entry is “significant increase in the object recognition score”. Moreover, in the assay on rat [3], the “duration of social interactions” value is recorded as “significant increase in the duration of social interactions; also recorded: induces an increase in the duration of social interactions” and the “sedation in the social interaction test” value was “significant sedative effect”. In addition, in the assay on XA transport system, the “increase of transport in the presence of sodium” value was “about 20%”. Also, the Km with XA transport system (read-out: Km of intracellular transport) was 105 µM. Also, in assay [4], the “DOPAC release in PFC” value was “decreased slightly”, the “HVA release in PFC” value is “decreased slightly”, the “effect on dopamine release in PFC” value is on record as “had no effect on dopamine release” and the “increase of extracellular dopamine release in PFC” value is listed as “approximately 250%”. Further, in the assay on rat [5], the “controlateral rotations induced by apomorphine” value is on record as “did not antagonize; also recorded: did not modify the number of controlateral rotations” and the “ipsilateral rotations induced by amphetamine” value is “had no effect”.

These data come from patent US7122326B2 (Universite Louis Pasteur, priority 2001, dated 2006).
